Experimental data taken from patent US8268848B2, “Cyclopropane compound” (Eisai R&D Management Co., Ltd., priority 2010, dated 2012).
Where two headings read alike, the source gives them in different places.

Legend:
[1] = molecular target: T1, OX2 (Homo sapiens, UniProt O43614); experiment: Measurement of orexin receptor-binding ability ([125I]-OX-A, cell membranes, OX2); design: expressed in transfected cells; host or cells: CHO cells (membrane preparation); conditions: membranes of recombinant CHO cells expressing OX2, 0.2 nM [125I]-OX-A
T1 sequence (O43614 1-444): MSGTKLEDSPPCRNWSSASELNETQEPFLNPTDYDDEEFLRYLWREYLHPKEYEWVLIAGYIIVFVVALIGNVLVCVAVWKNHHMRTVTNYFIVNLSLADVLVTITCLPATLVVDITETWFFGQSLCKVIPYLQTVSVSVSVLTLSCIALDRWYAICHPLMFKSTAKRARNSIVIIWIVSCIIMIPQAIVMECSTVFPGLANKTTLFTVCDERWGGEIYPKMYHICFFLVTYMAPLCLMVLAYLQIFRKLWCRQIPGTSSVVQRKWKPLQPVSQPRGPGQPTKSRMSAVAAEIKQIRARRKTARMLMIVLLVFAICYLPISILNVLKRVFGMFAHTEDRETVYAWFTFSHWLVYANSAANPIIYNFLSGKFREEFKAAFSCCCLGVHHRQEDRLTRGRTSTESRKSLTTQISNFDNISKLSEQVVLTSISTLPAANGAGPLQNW

[2] = molecular target: T2, OX1 (Homo sapiens, UniProt O43613); experiment: Measurement of orexin receptor-binding ability ([125I]-OX-A, cell membranes, OX1); design: expressed in transfected cells; host or cells: CHO cells (membrane preparation)
T2 sequence (O43613 1-425): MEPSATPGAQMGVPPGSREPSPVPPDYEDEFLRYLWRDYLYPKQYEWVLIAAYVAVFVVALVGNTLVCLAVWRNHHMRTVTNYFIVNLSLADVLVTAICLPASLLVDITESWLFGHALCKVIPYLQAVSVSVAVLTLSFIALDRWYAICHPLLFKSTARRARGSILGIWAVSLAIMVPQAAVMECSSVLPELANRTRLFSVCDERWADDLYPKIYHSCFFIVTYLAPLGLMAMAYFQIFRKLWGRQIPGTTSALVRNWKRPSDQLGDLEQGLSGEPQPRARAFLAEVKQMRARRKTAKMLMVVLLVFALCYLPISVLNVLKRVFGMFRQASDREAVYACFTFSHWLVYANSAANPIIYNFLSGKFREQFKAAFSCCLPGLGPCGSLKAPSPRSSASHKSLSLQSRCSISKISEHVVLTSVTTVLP

[3] = membranes of recombinant CHO cells expressing OX1, 0.2 nM [125I]-OX-A, read-out: OX1 (IC50)

## Cc1ncc(OC[C@@]2(c3cc(F)cc(F)c3)C[C@H]2C(=O)Nc2ccc(F)c(F)c2)c(C)n1 [Example 134, (1R,2S)-N-(3,4-difluorophenyl)-2-(3,5-difluorophenyl)-2-{[(2,4-dimethylpyrimidin-5-yl)oxy]methyl}cyclopropanecarboxamide]
[1]; read-out: OX2 (IC50)
  IC50: 4 nM
[2]; [3]
  IC50: < 2 nM

## Cc1ncc(OC[C@@]2(c3cccc(F)c3)C[C@H]2C(=O)Nc2ccc(F)cn2)c(CO)n1 [Example 286, (1R,2S)-2-(3-fluorophenyl)-N-(5-fluoropyridin-2-yl)-2-{[(4-hydroxymethyl-2-methylpyrimidin-5-yl)oxy]methyl}-2-(3-fluorophenyl)cyclopropanecarboxamide]
[1]; OX2 (IC50) nM
  IC50: 4.5 nM
[2]
  IC50: > 200 nM

## Cc1nc(CO)ncc1OC[C@@]1(c2cccc(F)c2)C[C@H]1C(=O)Nc1ccc(F)cn1 [Example 323, (1R,2S)-2-(3-fluorophenyl)-N-(5-fluoropyridin-2-yl)-2-{[(2-hydroxymethyl-4-methylpyrimidin-5-yl)oxy]methyl}cyclopropanecarboxamide]
[1]; OX2 (IC50) nM
  IC50: 2.6 nM
[2]
  IC50: 32.6 nM

## COCc1nc(C)ncc1OC[C@@]1(c2cc(F)cc(F)c2)C[C@H]1C(=O)Nc1ccccn1 [Example 218, (1R,2S)-2-(3,5-difluorophenyl)-2-{[(4-methoxymethyl-2-methylpyrimidin-5-yl)oxy]methyl}-N-(pyridin-2-yl)cyclopropanecarboxamide]
[1]; read-out: OX2 (IC50)
  IC50: 3 nM
[2]; [3]
  IC50: 10 nM

## COc1cccc(C2(COc3cnc(C)nc3C)CC2C(=O)Nc2ccc(C#N)cn2)c1 (stereo not shown) [Example 183]
[1]; OX2 (IC50) nM
  IC50: 42 nM
[2]
  IC50: 337 nM

## COCc1nc(C)ncc1OC[C@@]1(c2ccc(F)cc2)C[C@H]1C(=O)Nc1ccc(F)c(F)c1 [Example 207, (1R,2S)-N-(3,4-difluorophenyl)-2-(4-fluorophenyl)-2-{[(4-methoxymethyl-2-methylpyrimidin-5-yl)oxy]methyl}cyclopropanecarboxamide]
[1]; read-out: OX2 (IC50)
  IC50: 9 nM
[2]; [3]
  IC50: 110 nM

## Cc1ncc(OC[C@@]2(c3ccccc3)C[C@H]2C(=O)Nc2ccc3ccncc3c2)c(C)n1 [Example 13]
[1]; read-out: OX2 (IC50)
  IC50: 71 nM
[2]; [3]
  IC50: 1240 nM

## Cc1ncc(OC[C@@]2(c3ccccc3)C[C@H]2C(=O)Nc2ccnc(C#N)c2)c(C)n1 [Example 41, (1R,2S)-N-(2-cyanopyridin-4-yl)-2-{[(2,4-dimethylpyrimidin-5-yl)oxy]methyl}-2-phenylcyclopropanecarboxamide]
[1]; read-out: OX2 (IC50)
  IC50: 8 nM
[2]; [3]
  IC50: 125 nM

## Cc1ncc(OC[C@@]2(c3ccsc3)C[C@H]2C(=O)Nc2ccc(Cl)cn2)c(C)n1 [Example 269]
[1]; read-out: OX2 (IC50)
  IC50: 23 nM
[2]; [3]
  IC50: 264 nM

## Cc1ncc(OC[C@@]2(c3ccccc3)C[C@H]2C(=O)Nc2cc(C#N)ccn2)c(C)n1 [Example 46]
[1]; read-out: OX2 (IC50)
  IC50: 43 nM
[2]; [3]
  IC50: 423 nM

## Cc1ncc(OC[C@@]2(c3ccccc3)C[C@H]2C(=O)Nc2ccc(F)c(F)c2)c(C)n1 [Example 30]
[1]; read-out: OX2 (IC50)
  IC50: 12 nM
[2]; [3]
  IC50: 78 nM

## COCc1nc(C)ncc1OC[C@@]1(c2cccc(Cl)c2)C[C@H]1C(=O)Nc1ccccn1 [Example 225, (1R,2S)-2-(3-chlorophenyl)-2-{[(4-methoxymethyl-2-methylpyrimidin-5-yl)oxy]methyl}-N-(pyridin-2-yl)cyclopropanecarboxamide]
[1]; read-out: OX2 (IC50)
  IC50: 3 nM
[2]; [3]
  IC50: 6 nM

## Cc1ncc(OC[C@@]2(c3cc(F)ccc3O)C[C@H]2C(=O)Nc2ccc(F)cn2)c(C)n1 [Example 324, (1R,2S)-2-{[(2,4-dimethylpyrimidin-5-yl)oxy]methyl}-2-(5-fluoro-2-hydroxyphenyl]-N-(5-fluoropyridin-2-yl)cyclopropanecarboxamide]
[1]; OX2 (IC50) nM
  IC50: 5.9 nM
[2]
  IC50: 113 nM

## Cc1ncc(N(C)C[C@@]2(c3ccccc3)C[C@H]2C(=O)Nc2cc(C)c(Cl)cn2)c(C)n1 [Example 301]
[1]; read-out: OX2 (IC50)
  IC50: 28 nM
[2]; [3]
  IC50: 175 nM

## Cc1ncc(OC[C@@]2(c3ccccc3)C[C@H]2C(=O)Nc2ccc3c(c2)NC(=O)CO3)c(C)n1 [Example 23]
[1]; read-out: OX2 (IC50)
  IC50: 67 nM
[2]; [3]
  IC50: 1700 nM

## Cc1ncc(OC[C@@]2(c3cccc(F)c3)C[C@H]2C(=O)Nc2ccc(F)nc2)c(C)n1 [Example 88]
[1]; OX2 (IC50) nM
  IC50: 13 nM
[2]
  IC50: 267 nM

## Cc1ncc(OCC2(c3ccc(F)cc3)CC2C(=O)Nc2cccnc2)c(C)n1 (stereo not shown) [Example 103]
[1]; read-out: OX2 (IC50)
  IC50: 96 nM
[2]; [3]
  IC50: 2940 nM

## Cc1ncc(OC[C@@]2(c3cc(F)cc(F)c3)C[C@H]2C(=O)Nc2ccc(F)cn2)c(C)n1 [Example 133, (1R,2S)-2-(3,5-difluorophenyl)-2-{[(2,4-dimethylpyrimidin-5-yl)oxy]methyl}-N-(5-fluoropyridin-2-yl)cyclopropanecarboxamide]
[1]; OX2 (IC50) nM
  IC50: 3 nM
[2]
  IC50: 7 nM

## COc1ccc(C2(COc3cnc(C)nc3C)CC2C(=O)Nc2ccc(Cl)cn2)cc1 (stereo not shown) [Example 182]
[1]; read-out: OX2 (IC50)
  IC50: 21 nM
[2]; [3]
  IC50: 99 nM

## Cc1ncc(OC[C@@]2(c3ccc(F)cc3)C[C@H]2C(=O)Nc2ccccn2)c(C)n1 [Example 110]
[1]; OX2 (IC50) nM
  IC50: 110 nM
[2]
  IC50: 340 nM

## COCc1nc(C)ncc1OC[C@@]1(c2ccccc2)C[C@H]1C(=O)Nc1ccc(C#N)cn1 [Example 140, (1R,2S)-N-(5-cyanopyridin-2-yl)-2-{[(4-(methoxymethyl)-2-methylpyrimidin-5-yl)oxy]methyl}-2-phenylcyclopropanecarboxamide]
[1]; read-out: OX2 (IC50)
  IC50: 8.9 nM
[2]; [3]
  IC50: 44 nM

## Cc1ncc(OC[C@@]2(c3cccc(F)c3)C[C@H]2C(=O)Nc2ccc(F)cn2)c(CF)n1 [Example 320, (1R,2S)-2-{[(4-fluoromethyl-2-methylpyrimidin-5-yl)oxy]methyl}-2-(3-fluorophenyl)-N-(5-fluoropyridin-2-yl)cyclopropanecarboxamide]
[1]; OX2 (IC50) nM
  IC50: 2.3 nM
[2]
  IC50: 12.3 nM

## COCc1nc(C)ncc1OC[C@@]1(c2cc(F)cc(OC)c2)C[C@H]1C(=O)Nc1ccc(F)c(F)c1 [Example 232, (1R,2S)-N-(3,4-difluorophenyl)-2-(3-fluoro-5-methoxyphenyl)-2-{[(4-methoxymethyl-2-methylpyrimidin-5-yl)oxy]methyl}cyclopropanecarboxamide]
[1]; read-out: OX2 (IC50)
  IC50: 3 nM
[2]; [3]
  IC50: 1 nM

## CCc1nc(C)ncc1OC[C@@]1(c2cccc(F)c2)C[C@H]1C(=O)Nc1ccc(Cl)cn1 [Example 243, (1R,2S)-N-(5-chloropyridin-2-yl)-2-{[(4-ethyl-2-methylpyrimidin-5-yl)oxy]methyl}-2-(3-fluorophenyl)cyclopropanecarboxamide]
[1]; OX2 (IC50) nM
  IC50: 3.3 nM
[2]
  IC50: 2 nM

## Cc1ncc(OC[C@@]2(c3cccc(F)c3)C[C@H]2C(=O)Nc2ccc(F)cc2)c(C)n1 [Example 92, (1R,2S)-2-{[(2,4-dimethylpyrimidin-5-yl)oxy]methyl}-2-(3-fluorophenyl)-N-(4-fluorophenyl)cyclopropanecarboxamide]
[1]; OX2 (IC50) nM
  IC50: 8 nM
[2]
  IC50: 23 nM

## Cc1ncc(OC[C@@]2(c3ccc(Br)cc3)C[C@H]2C(=O)Nc2ccc(F)cn2)c(C)n1 [Example 274]
[1]; OX2 (IC50) nM
  IC50: 19 nM
[2]
  IC50: 59 nM

## Cc1ncc(OC[C@@]2(c3cccc(F)c3)C[C@H]2c2nc3ccc(Cl)cc3c(=O)[nH]2)c(C)n1 [Example 311]
[1]; read-out: OX2 (IC50)
  IC50: 3.1 nM
[2]; [3]
  IC50: 23 nM

## Cc1ccc(C2(COc3cnc(C)nc3C)CC2C(=O)Nc2ccc(Cl)cn2)cc1 (stereo not shown) [Example 175]
[1]; OX2 (IC50) nM
  IC50: 35 nM
[2]
  IC50: 62 nM

## Cc1ncc(OC[C@@]2(c3cccc(F)c3)C[C@H]2C(=O)Nc2ccc(CF)cn2)c(C)n1 [Example 282]
[1]; OX2 (IC50) nM
  IC50: 2.4 nM
[2]
  IC50: 21 nM

## Cc1ncc(OC[C@@]2(c3ccccc3)C[C@H]2C(=O)Nc2ccc(C(F)(F)F)cn2)c(C)n1 [Example 5]
[1]; read-out: OX2 (IC50)
  IC50: 38 nM
[2]; [3]
  IC50: 145 nM

## Cc1ncc(OCC2(c3cccc(C(F)(F)F)c3)CC2C(=O)Nc2cccnc2)c(C)n1 (stereo not shown) [Example 277]
[1]; read-out: OX2 (IC50)
  IC50: 104 nM
[2]; [3]
  IC50: 2210 nM

## Cc1ncc(OCC2(c3ccc(F)cc3)CC2C(=O)Nc2ccc(Cl)cn2)c(C)n1 (stereo not shown) [Example 102]
[1]; OX2 (IC50) nM
  IC50: 23 nM
[2]
  IC50: 50 nM

## Cc1ncc(OC[C@@]2(c3cccc(F)c3)C[C@H]2C(=O)Nc2ccncc2)c(C)n1 [Example 90]
[1]; OX2 (IC50) nM
  IC50: 95 nM
[2]
  IC50: 2060 nM

## COc1cccc(C2(COc3cnc(C)nc3C)CC2C(=O)Nc2ccc(Cl)cn2)c1 (stereo not shown) [Example 185]
[1]; OX2 (IC50) nM
  IC50: 7 nM
[2]
  IC50: 24 nM

## COc1cc(NC(=O)[C@@H]2C[C@@]2(COc2cnc(C)nc2C)c2cccc(F)c2)ncc1F [Example 94, (1R,2S)-2-{[(2,4-dimethylpyrimidin-5-yl)oxy]methyl}-N-(5-fluoro-4-methoxypyridin-2-yl)-2-(3-fluorophenyl)cyclopropanecarboxamide]
[1]; OX2 (IC50) nM
  IC50: 2.3 nM
[2]
  IC50: 2.8 nM
